Laboratory results: patent US9790180B2, “Piperidine derivatives as HDAC1/2 inhibitors” (Acetylon Pharmaceuticals, Inc., priority 2014, dated 2017)
pIC50: −log10 of the molar value. In brackets after ≈: the same amount, converted by molar mass. Where two headings read alike, the source gives them in different places.

Experiments:
HDAC2 = HDAC2 (Homo sapiens (Human), UniProt Q92769); assay: HDAC enzyme assay, HDAC2; assay type: biochemical; conditions: for IC50: 24 hours pre-incubation with enzyme, read-out: IC50 (nM) HDAC2
Sequence of HDAC2 (Q92769 whole entry): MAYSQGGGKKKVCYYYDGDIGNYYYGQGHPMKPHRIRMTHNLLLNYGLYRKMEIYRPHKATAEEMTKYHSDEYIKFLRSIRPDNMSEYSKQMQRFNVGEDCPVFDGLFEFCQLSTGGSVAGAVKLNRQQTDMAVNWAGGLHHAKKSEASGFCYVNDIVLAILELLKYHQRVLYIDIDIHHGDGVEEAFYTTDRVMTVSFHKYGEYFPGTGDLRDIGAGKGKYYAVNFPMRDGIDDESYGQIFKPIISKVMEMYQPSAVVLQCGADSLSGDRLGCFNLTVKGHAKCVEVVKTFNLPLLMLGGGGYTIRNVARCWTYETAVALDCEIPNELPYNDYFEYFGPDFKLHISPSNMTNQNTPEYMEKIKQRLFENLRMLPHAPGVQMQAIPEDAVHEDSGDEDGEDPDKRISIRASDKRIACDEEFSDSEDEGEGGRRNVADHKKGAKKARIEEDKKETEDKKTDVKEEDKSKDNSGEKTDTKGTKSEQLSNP
Procedure: (§1) Compounds for testing were diluted in DMSO to 50 fold the final concentration and a ten point three fold dilution series was made. The compounds were diluted in assay buffer (50 mM HEPES, pH 7.4, 100 mM KCl, 0.001% Tween-20, 0.05% BSA, 20 μM tris(2-carboxyethyl)phosphine) to 6 fold their final concentration. The HDAC enzymes (purchased from BPS Biosciences) were diluted to 1.5 fold their final concentration in assay buffer and pre-incubated with the compounds for 24 hours prior to addition of the substrate.
(§2) The substrate tripeptide substrate 3 (synthesized in house) for each enzyme was equal to the Km as determined by a substrate titration curve. The substrates were diluted in assay buffer at 6× their final concentration with 0.3 μM sequencing grade trypsin (Sigma). The substrate/trypsin mix was added to the enzyme/compound mix, the plate was shaken for 60 seconds and placed into a Spectramax M5 microtiter plate reader. The development of fluorescence was monitored for 30 min and the linear rate of the reaction was calculated. The IC50 was determined using Graph Pad Prism by a four parameter curve fit. The IC50 values obtained for the compounds of this invention are found in Table 1. Examples of the curves are found in FIGS. 1 and 4.

[1] = Rat cassette pharmacokinetics; assay type: in vivo; conditions: male, SD, plasma; for bioavailability: 5 mg/kg, rat, oral AUC to IV AUC, dose adjusted; for AUC / Cmax / half-life / CL renal: rat cassette dosing; for AUC / Cmax / half-life: 5 mg/kg PO; for half-life: read-out: PO T½ (converted); for CL renal: IV 1 mg/kg, read-out: IV Clr. (converted)
Procedure: Male SD rats were fasted overnight. Compounds of the invention were dissolved in dimethyl acetamide at 10 times the final concentration, then Solutol HS 15 (BASF) was added to a final concentration of 10%. Finally 80% saline was added and vortexed to achieve a clear solution. For the IV dosing three animals were injected via the foot dorsal vein with 1 mg/kg compound. For the PO dosing 5 mg/kg of compound was delivered by oral gavage. Blood was collected via the tail vein into K2EDTA tubes at 5 minutes, 15 minutes, 30 minutes, 1 hour, 2 hours, 4 hours, 8 hours and 24 hours after dosing. The blood was centrifuged at 2000 g for 5 minutes at 4° C. to obtain plasma. The plasma was extracted with acetonitrile and the level of compound was analyzed by LC/MS/MS. The level of compound in plasma was calculated from a standard curve in rat plasma. The IV clearance and area under the curve were calculated using WinNonLin software. The dose adjusted area under the curve for the IV and oral dosing were used to calculate the oral bioavailability.

HDAC1 = HDAC1 (Homo sapiens (Human), UniProt Q13547); assay: HDAC enzyme assay, HDAC1; assay type: biochemical; conditions: for IC50: 24 hours pre-incubation with enzyme, read-out: IC50 (nM) HDAC1
Sequence of HDAC1 (Q13547 whole entry): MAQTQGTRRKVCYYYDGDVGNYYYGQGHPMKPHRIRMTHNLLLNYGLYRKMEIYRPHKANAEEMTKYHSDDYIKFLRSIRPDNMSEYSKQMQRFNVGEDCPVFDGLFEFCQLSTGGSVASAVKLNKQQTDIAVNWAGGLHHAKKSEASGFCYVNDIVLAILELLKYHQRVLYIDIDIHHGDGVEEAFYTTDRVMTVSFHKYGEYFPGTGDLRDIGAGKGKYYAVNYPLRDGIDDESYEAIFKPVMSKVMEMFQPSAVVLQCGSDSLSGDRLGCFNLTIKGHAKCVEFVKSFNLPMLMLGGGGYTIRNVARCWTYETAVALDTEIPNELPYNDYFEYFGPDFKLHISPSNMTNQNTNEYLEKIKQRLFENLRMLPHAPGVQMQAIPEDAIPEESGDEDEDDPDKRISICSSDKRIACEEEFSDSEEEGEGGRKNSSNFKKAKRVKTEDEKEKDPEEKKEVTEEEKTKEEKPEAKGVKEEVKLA
Procedure: as §1, §2

Microsome stability = assay type: in vitro ADME
Solubility = assay type: physicochemical
hERG channel = hERG channel (Homo sapiens (Human), UniProt Q12809); assay: hERG assay (QPatch, CHO cell line expressing hERG channels); assay type: cell-based; conditions: In vitro tox
Sequence of hERG channel (Q12809 whole entry): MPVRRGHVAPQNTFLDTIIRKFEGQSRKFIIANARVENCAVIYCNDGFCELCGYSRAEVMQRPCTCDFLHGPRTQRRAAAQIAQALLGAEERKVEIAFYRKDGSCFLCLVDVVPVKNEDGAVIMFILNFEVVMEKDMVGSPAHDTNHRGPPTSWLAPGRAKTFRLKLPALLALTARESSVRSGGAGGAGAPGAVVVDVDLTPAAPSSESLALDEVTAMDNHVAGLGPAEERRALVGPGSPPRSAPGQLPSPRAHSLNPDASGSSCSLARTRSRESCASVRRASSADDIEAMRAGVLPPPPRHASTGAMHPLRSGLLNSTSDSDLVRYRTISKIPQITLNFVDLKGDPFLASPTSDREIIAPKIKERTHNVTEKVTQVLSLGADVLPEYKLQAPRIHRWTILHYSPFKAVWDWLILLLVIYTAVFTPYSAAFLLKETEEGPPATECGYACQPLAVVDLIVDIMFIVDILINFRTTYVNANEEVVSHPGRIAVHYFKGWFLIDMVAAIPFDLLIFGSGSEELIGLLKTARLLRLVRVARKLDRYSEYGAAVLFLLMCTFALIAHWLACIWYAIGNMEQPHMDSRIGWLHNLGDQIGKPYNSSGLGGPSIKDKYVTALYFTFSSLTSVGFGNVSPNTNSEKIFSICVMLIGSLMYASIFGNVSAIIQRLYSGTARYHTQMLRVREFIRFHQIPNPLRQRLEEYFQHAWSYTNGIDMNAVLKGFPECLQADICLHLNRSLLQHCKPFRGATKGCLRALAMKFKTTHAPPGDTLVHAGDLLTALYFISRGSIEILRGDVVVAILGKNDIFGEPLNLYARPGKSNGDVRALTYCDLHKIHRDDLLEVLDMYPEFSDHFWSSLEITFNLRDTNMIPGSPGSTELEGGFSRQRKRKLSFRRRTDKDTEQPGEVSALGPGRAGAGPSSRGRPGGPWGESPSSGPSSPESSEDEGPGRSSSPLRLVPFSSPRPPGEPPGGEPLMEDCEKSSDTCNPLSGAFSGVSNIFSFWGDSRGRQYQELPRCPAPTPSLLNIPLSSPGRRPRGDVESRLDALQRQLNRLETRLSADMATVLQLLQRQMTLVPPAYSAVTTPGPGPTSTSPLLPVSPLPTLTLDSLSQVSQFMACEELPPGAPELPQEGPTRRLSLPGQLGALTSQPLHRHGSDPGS
Procedure: For hERG assays, a CHO cell line stably transfected with hERG cDNA and expressing hERG channels were seeded into a QPatch plate (Sophion) at a density of 3-8×10^6 cells/ml. The cells were voltage clamped at a holding potential of −80 mV. The hERG current was activated by depolarizing at +20 mV for 5 sec, after which the current was taken back to −50 mV for 5 sec to remove the inactivation and observe the deactivating tail current. The maximum amount of tail current size was used to determine hERG current amplitude. Six doses (30, 10, 3, 1, 0.3 and 0.1 μM) of Compound 003 were chosen to obtain fitting curves and IC50. Data were analyzed using Assay Software provided by Sophion and Graphpad Prism.

HDAC3 = HDAC3 (Homo sapiens (Human), UniProt O15379); assay: HDAC enzyme assay, HDAC3; assay type: biochemical; conditions: for IC50: 24 hours pre-incubation with enzyme, read-out: IC50 (nM) HDAC3
Sequence of HDAC3 (O15379 whole entry): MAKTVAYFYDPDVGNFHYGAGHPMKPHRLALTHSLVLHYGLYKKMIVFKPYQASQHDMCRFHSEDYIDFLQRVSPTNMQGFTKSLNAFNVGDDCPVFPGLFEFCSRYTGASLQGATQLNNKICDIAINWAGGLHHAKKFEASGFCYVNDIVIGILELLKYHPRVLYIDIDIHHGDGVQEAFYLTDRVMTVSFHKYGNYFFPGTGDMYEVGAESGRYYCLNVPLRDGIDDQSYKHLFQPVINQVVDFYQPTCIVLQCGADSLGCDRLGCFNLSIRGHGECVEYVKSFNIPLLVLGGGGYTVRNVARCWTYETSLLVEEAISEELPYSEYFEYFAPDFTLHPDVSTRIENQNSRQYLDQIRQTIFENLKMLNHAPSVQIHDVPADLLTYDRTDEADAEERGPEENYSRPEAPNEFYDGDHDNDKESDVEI
Sequence of HDAC3 (Q9Y618 395-489 partner): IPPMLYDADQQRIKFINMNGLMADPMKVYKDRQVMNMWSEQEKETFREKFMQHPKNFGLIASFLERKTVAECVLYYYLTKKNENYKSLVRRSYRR
Procedure: as §1, §2

[2] = test system: fetal β-like globin (HbG, γ); assay: Fetal globin induction assay in CD34+ cells isolated from human bone marrow; assay type: cell-based; conditions: for Cell based assay potency: lowest concentration to achieve a 2 fold increase in fetal globin gene expression over baseline
Procedure: CD34+ cells isolated from human bone marrow were cultured in vitro using a method described by Bradner J E (Proc Natl Acad Sci USA. 2010 Jul. 13; 107(28):12617-22), which consists of a 7 day expansion phase in media that supports differentiation of cells towards the erythroid lineage followed by a differentiation phase for 3 days where erythroid cell development continues. At the end of the differentiation period these cells are primarily late erythroblasts. mRNA levels were determined by quantitative real time PCR using primer/probe sets designed to adult major β-globin (β), adult minor β-globin (δ), fetal β-like globin (HbG, γ), and embryonic β-like globin (ε). Protein levels were determined by flow cytometry using fluorescent antibodies against fetal hemoglobin (HbF) or adult hemoglobin (HbA).
In the experiment shown in FIG. 3, cells were differentiated in the presence of vehicle (DMSO) 0.3, 1 and 3 μM of Compound A, and of 0.3, 1, and 3 μM of Compound 003. In the experiment shown in FIG. 6, cells were differentiated in the presence of vehicle (DMSO) 0.3, 1 and 3 μM of Compound A, and of 0.3, 1, and 3 μM of Compound 005. Globin mRNA levels were determined at day 3 of differentiation.

[3] = test system: CYP1A2, CYP2C9, CYP2C19, CYP3A4, CYP2D6; assay: Cyp inhibition in human liver microsomes; assay type: in vitro ADME; conditions: In vitro tox; human liver microsomes
Procedure: For Cyp inhibition, human live microsomes from BD Gentest were incubated with Compound 003 (10, 3.33, 1.11, 0.37, 0.12, 0.04, 0.01 μM) and substrate (CYP1A2: Phenacetin at 30 μM; CYP2C9: Diclofenac at 10 μM; CYP2C19: S-Mephenytoin at 35 μM; CYP3A4: Midazolam at 5 μM and Testosterone at 80 μM; CYP2D6: Bufuralol at 10 μM) for the following incubation times: CYP1A2, 2C9, 2D6: 10 minutes, 37° C.; CYP2C19: 45 minutes, 37° C.; CYP3A4: 5 minutes, 37° C. Substrate conversion was measured by liquid chromatography/mass spectrometry/mass spectrometry (LC/MS/MS). Inhibition was calculated by curve fitting in Graph Pad Prism.

Gata2 mRNA = Gata2 mRNA induction in erythroid progenitors; assay type: cell-based, human; conditions: primary erythroid progenitors, 3 days differentiation, relative to beta-actin mRNA (FIG. 7)
Text: Human bone marrow derived CD34+ cells were expanded for 7 days as described by Sankaran et al., Science, vol. 322(5909), pp. 1839-42 (2008). Cells were then differentiated, in the presence of the indicated concentration of Compound 005, Compound A (another known HDAC1/2 inhibitor), or vehicle control (DMSO), for 3 days in media supporting erythropoiesis (Hu et al., “Isolation and functional characterization of human erythroblasts at distinct stages: implications for understanding of normal and disordered erythropoiesis in vivo”, Blood, vol. 121(16), pp. 3246-53 ([…])). Gata2 mRNA was determined using quantitative real time PCR and expressed relative to the level beta-actin mRNA control.

| Compound | IC50 (HDAC2) | IC50 (HDAC1) | IC50 (HDAC3) | also measured |
| --- | --- | --- | --- | --- |
| CC(C)C1(Nc2ncc(C(=O)Nc3cc(-c4cccs4)ccc3N)cn2)CCN(C(=O)N2CCN(C)CC2)CC1 [Compound 002] | 28 nM | 7 nM | 203 nM | bioavailability [1]: 142%; AUC [1]: 6090 ng·h/mL; Cmax [1]: 1010 ng/mL; half-life [1]: 5.9 h; CL renal [1]: 20 mL/min/kg; Cyp [3]: >10 µM; solubility (Solubility): 42.7 µM (≈ 24 µg/mL); hERG (hERG channel): >30 µM; Cell based assay potency [2]: 3000 nM |
| Nc1ccc(-c2cccs2)cc1NC(=O)c1ccc(NC2CCN(C(=O)N3CCCC3)CC2)cc1 [Compound 006] | 22 nM | 4.7 nM | 274 nM | bioavailability [1]: 76%; AUC [1]: 31600 ng·h/mL; Cmax [1]: 1520 ng/mL; half-life [1]: 14.5 h; CL renal [1]: 2.5 mL/min/kg; Cyp [3]: >10 µM; hERG (hERG channel): >30 µM |
| CC1(Nc2ccc(C(=O)Nc3cc(-c4ccncc4)ccc3N)cc2)CCN(C(=O)N2CCCC2)CC1 [Compound 030] | 9.4 nM | 7.1 nM | 466 nM |  |
| CC1(Nc2ccc(C(=O)Nc3cc(-c4cccnc4)ccc3N)cc2)CCN(C(=O)N2CCOCC2)CC1 [Compound 031] | 71 nM | 91 nM | 264 nM |  |
| Nc1ccc(-c2ccncc2)cc1NC(=O)c1ccc(NC2CCN(C(=O)N3CCCC3)CC2)cc1 [Compound 032] | 20 nM | 17 nM | 397 nM |  |
| Nc1ccc(-c2cccs2)cc1NC(=O)c1ccc2nc(N3CCNCC3)ccc2c1 [Compound A, reference compound] |  |  |  | pIC50 (HDAC2; reference compound, read-out: IC50 for HDAC2): ~7.82; pIC50 (HDAC1; reference compound, read-out: IC50 for HDAC1): ~8.40; pIC50 (HDAC3; reference compound, read-out: IC50 for HDAC3): ~6.94; induction of % HbG ([2]; primary erythroid progenitors, 3 days differentiation (FIG. 6)): equivalent dose and time-dependent induction; induction of Gata2 mRNA (Gata2 mRNA): equivalent dose and time-dependent induction |

Now from value to compound, other results behind:

| IC50 (HDAC2) | IC50 (HDAC1) | IC50 (HDAC3) | Compound | also measured |
| --- | --- | --- | --- | --- |
| 38 nM | 6.5 nM | 427 nM | CC(C)NC(=O)N1CCC(C)(Nc2ncc(C(=O)Nc3cc(-c4cccs4)ccc3N)cn2)CC1 [Compound 001] | bioavailability [1]: 63%; AUC [1]: 5960 ng·h/mL; Cmax [1]: 988 ng/mL; half-life [1]: 3.8 h; CL renal [1]: 8.83 mL/min/kg; Microsome stability (Microsome stability): 11 min; solubility (Solubility): 16.9 µM (≈ 8.34 µg/mL); hERG (hERG channel): >30 µM; Cell based assay potency [2]: 3000 nM |
| 346 nM | 93 nM | > 2000 nM | Nc1ccc(-c2ccccc2)cc1NC(=O)c1cnc(N(c2ccccc2)C2CCN(C(=O)Cc3c[nH]c4ccccc34)CC2)nc1 [Compound 034] |  |
| 996 nM | 74 nM | > 2000 nM | Cc1[nH]c2ccccc2c1CC(=O)N1CCC(N(c2ccccc2)c2ncc(C(=O)Nc3cc(-c4ccccc4)ccc3N)cn2)CC1 [Compound 036] |  |
| 377 nM | 432 nM | 1860 nM | CC1(Nc2ccc(C(=O)Nc3cc(-c4ccccc4)ccc3N)cc2C2CC2)CCN(C(=O)N2CCOCC2)CC1 [Compound 037] |  |
| 319 nM | 101 nM | > 2000 nM | Nc1ccc(-c2ccccc2)cc1NC(=O)c1cnc(NC2CCNc3ccccc32)nc1 (stereo not drawn) [Compound 038] |  |
| 59 nM | 17 nM | 321 nM | Nc1ccc(-c2ccccc2)cc1NC(=O)c1cnc(NC2CCNCC2)nc1 [Compound 039] |  |
| 39 nM | 8 nM | 277 nM | CN1CCC(Nc2ncc(C(=O)Nc3cc(-c4ccccc4)ccc3N)cn2)CC1 [Compound 040] |  |
| 714 nM | 210 nM | > 2000 nM | CN1CCC(Nc2ncc(C(=O)Nc3cc(-c4ccccc4)ccc3N)cn2)c2ccccc21 (stereo not drawn) [Compound 042] |  |
